# Where two headings read alike, the source gives them in different places.
# Experiments:
# SV2A [1] = experiment: Brain PET imaging with 1TC kinetic modeling; conditions: for VT (baseline): 1TC
# Protocol: (§3) A total of 10 PET imaging experiments with [^18F]SDM-16 were performed in rhesus monkeys (Macaca mulatta) according to a protocol approved by the Yale University Institutional Animal Care and Use Committee (IACUC). Four monkeys were studied. […] Body temperature was maintained by a water-jacket heating pad. The animal was attached to a physiological monitor, and vital signs (heart rate, blood pressure, respirations, SPO2, EKG, ETCO2, and body temperature) were continuously monitored. A venous line was inserted in one limb for administration of radiotracer, displacement, and blocking drugs. A catheter was placed in the femoral artery in the other limb for blood sampling. Dynamic PET brain scans were performed on a Focus 220 system (Siemens Medical Solutions, Knoxville, TN, USA) with a reconstructed image resolution of approximately 1.5 mm. After a 9-min transmission scan, the radioligand was injected i.v. over 3 min. by an infusion pump. Dynamic PET scans were performed for 3 h (baseline and blocking scans) or 4 h (displacement scan).
# (§4) PET images were reconstructed with built-in corrections for attenuation, normalization, scatter, randoms, and deadtime. PET brain images were registered to the animal’s MR image, which was subsequently registered to a brain atlas to define the regions of interest. Dynamic images were reconstructed using a Fourier rebinning and filtered back projection algorithm. A rhesus monkey brain atlas was used for generation of regions of interest (ROIs) and time − activity curves (TACs) for the following ROIs: amygdala, brain stem, caudate nucleus, centrum semiovale (CS), cerebellum, cingulate cortex, frontal cortex, globus pallidus, hippocampus, insula, nucleus accumbens, occipital cortex, pons, putamen, substantia nigra, temporal cortex, and thalamus.
# (§5) Volume of distribution (VT, mL·cm^−3) values and the first-order kinetic rate constants of tracer (K1) were derived through 1-tissue (1T) compartment kinetic modeling with the metabolite-corrected arterial plasma input function, which was calculated as the product of the fitted total plasma curve and the parent radiotracer fraction curve. Nondisplaceable volume of distribution (VND) and SV2A occupancy by LEV was calculated using the Lassen plot [32]. Nondisplaceable binding potential (BPND) values were calculated from VT values using CS as reference region, or the VND derived from the blocking study, i.e., BPND = (VT, ROI − VT, CS)/ VT, CS or BPND = (VT/VND) -1.
# [2] = Brain PET imaging with 1TC kinetic modeling; conditions: rhesus monkey, intravenous; for Kp / half-life: both
# Protocol: as §3, §4, §5
# [3] = Measurement of lipophilicity (octanol / PBS pH 7.4); assay type: physicochemical; conditions: octanol/PBS pH 7.4
# SV2A [4] = target: SV2A (Macaca mulatta, UniProt H9EQH8); experiment: LEV blocking and displacement PET scans, Lassen plot; assay type: in vivo, rhesus monkeys (Macaca mulatta); design: from tissue; host or cells: brain of living rhesus monkeys (in vivo PET); conditions: for VT (blocking): LEV 30 mg/kg i.v.
# Text: (§1) Four monkeys were studied.
# (§2) To examine the in vivo binding specificity, SV2A occupancy, and the extent of nonspecific binding in the monkey brain, we performed the Lassen plot analysis using data from the two baseline scans and one blocking scan in the same monkey.
# [5] = as above; assay type: in vivo, rhesus monkeys (Macaca mulatta); conditions: male, rhesus monkey, intravenous
# Text: as §1, §2
# SV2A [6] = system: SV2A
# Protocol: as §3, §4, §5
# [7] = Free base fraction in plasma by modified Henderson-Hasselbalch equation (Eq. 1); conditions: Eq. 1, plasma pH 7.4
# [8] = Plasma free fraction (fp) by ultrafiltration; assay type: in vitro ADME, rhesus monkey; conditions: monkey, plasma (separated from spiked whole blood)
# Sequence of SV2A (Macaca mulatta, UniProt H9EQH8) (H9EQH8 1-742): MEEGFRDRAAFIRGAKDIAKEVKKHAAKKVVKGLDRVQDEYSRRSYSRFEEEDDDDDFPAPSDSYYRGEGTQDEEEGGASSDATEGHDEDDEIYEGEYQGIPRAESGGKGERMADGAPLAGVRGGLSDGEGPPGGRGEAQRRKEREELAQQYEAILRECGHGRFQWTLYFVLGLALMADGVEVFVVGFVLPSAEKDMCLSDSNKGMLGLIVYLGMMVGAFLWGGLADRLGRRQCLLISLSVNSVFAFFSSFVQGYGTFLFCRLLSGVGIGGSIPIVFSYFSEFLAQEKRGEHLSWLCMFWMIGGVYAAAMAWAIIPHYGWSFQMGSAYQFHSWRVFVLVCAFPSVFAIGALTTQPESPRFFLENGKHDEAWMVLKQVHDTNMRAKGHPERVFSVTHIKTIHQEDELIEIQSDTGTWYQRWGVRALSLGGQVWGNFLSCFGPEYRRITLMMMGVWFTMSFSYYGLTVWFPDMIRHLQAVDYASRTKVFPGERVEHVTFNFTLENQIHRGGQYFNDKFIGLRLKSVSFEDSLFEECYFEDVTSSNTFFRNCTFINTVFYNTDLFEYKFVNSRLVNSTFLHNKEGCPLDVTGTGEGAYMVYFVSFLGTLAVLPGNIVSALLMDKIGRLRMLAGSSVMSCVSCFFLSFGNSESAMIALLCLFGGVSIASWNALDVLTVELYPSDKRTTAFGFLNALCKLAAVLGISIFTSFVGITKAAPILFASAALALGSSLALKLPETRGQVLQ
compound,measurement,setting,value
"Cc1nccn1CN1C[C@@H](c2cc(F)cc([18F])c2)CC1=O [[^18F]SDM-16, (R)-4-(3-fluoro-5-(fluoro-^18F)phenyl)-1-((2-methyl-1H-imidazol-1-yl)methyl)pyrrolidin-2-one]",K1,SV2A [1]; Amygdala,0.10 ± 0.02 mL/cm^3 per min
same,VT (baseline),SV2A [1]; Amygdala,11.2 ± 2.0 mL/cm^3
same,K1,SV2A [1]; Anterior cingulate,0.15 ± 0.01 mL/cm^3 per min
same,K1,SV2A [1]; Brainstem,0.14 ± 0.02 mL/cm^3 per min
same,VT (baseline),SV2A [1]; Brainstem,14.1 ± 1.7 mL/cm^3
same,K1,SV2A [1]; Caudate,0.13 ± 0.02 mL/cm^3 per min
same,VT (baseline),SV2A [1]; Centrum semiovale,6.6 ± 0.9 mL/cm^3
same,K1,SV2A [1]; Cerebellum,0.18 ± 0.02 mL/cm^3 per min
same,K1,SV2A [1]; Cingulate cortex,0.15 ± 0.00 mL/cm^3 per min
same,VT (baseline),SV2A [1]; Cingulate cortex,31.3 ± 7.8 mL/cm^3
same,K1,SV2A [1]; Frontal cortex,0.14 ± 0.00 mL/cm^3 per min
same,VT (baseline),SV2A [1]; Frontal cortex,27.9 ± 6.8 mL/cm^3
same,K1,SV2A [1]; Globus pallidus,0.11 ± 0.01 mL/cm^3 per min
same,VT (baseline),SV2A [1]; Globus pallidus,17.2 ± 3.5 mL/cm^3
same,K1,SV2A [1]; Hippocampus,0.12 ± 0.02 mL/cm^3 per min
same,VT (baseline),SV2A [1]; Hippocampus,17.9 ± 2.5 mL/cm^3
same,K1,SV2A [1]; Insular cortex,0.14 ± 0.01 mL/cm^3 per min
same,VT (baseline),SV2A [1]; Insular cortex,29.8 ± 8.0 mL/cm^3
same,K1,SV2A [1]; Mean ± SD over brain regions,0.14 ± 0.03 mL/cm^3 per min
same,K1,SV2A [1]; Nucleus accumbens,0.13 ± 0.01 mL/cm^3 per min
same,VT (baseline),SV2A [1]; Nucleus accumbens,29.4 ± 8.5 mL/cm^3
same,K1,SV2A [1]; Occipital cortex,0.18 ± 0.02 mL/cm^3 per min
same,VT (baseline),SV2A [1]; Occipital cortex,29.5 ± 5.5 mL/cm^3
same,K1,SV2A [1]; Putamen,0.16 ± 0.02 mL/cm^3 per min
same,K1,SV2A [1]; Temporal cortex,0.14 ± 0.01 mL/cm^3 per min
same,VT (baseline),SV2A [1]; Temporal cortex,27.3 ± 5.7 mL/cm^3
same,K1,SV2A [1]; Thalamus,0.14 ± 0.02 mL/cm^3 per min
same,SUV (brain tracer uptake),"SV2A [1]; baseline scan, end of scan, frontal cortex and putamen",about 10
same,averaged VT as percent of that of [^11C]UCB-A,"SV2A [1]; rhesus monkey, in vivo",59%
same,regional K1 lower than [^11C]UCB-J,"SV2A [1]; rhesus monkey, in vivo",82%
same,regional K1 lower than [^18F]SynVesT-1,"SV2A [1]; rhesus monkey, in vivo",86%
same,in vivo defluorination (radioactivity in skull),SV2A [1]; up to 4-h p.i.,lack of in vivo defluorination
same,Kp,[2]; brain (caudate),21.6 ± 4.9
same,Kp,[2]; brain (centrum semiovale),6.6
same,half-life,[2]; brain (centrum semiovale),1.38 ± 0.3 h
same,Kp,[2]; brain (cerebellum),21.5 ± 3
same,Kp,[2]; brain (cingulate cortex),31.3
same,half-life,[2]; brain (insular cortex),2.53 ± 0.817 h
same,Kp,[2]; brain (putamen),26 ± 6.8
same,Kp,[2]; brain (thalamus),21.6 ± 4.9
same,fraction unbound,[2]; brain tissue,0.27
same,logP,[3],1.65 ± 0.05
same,VT (blocking),SV2A [4]; Amygdala,4.5 mL/cm^3
same,VT (blocking),SV2A [4]; Brainstem,4.5 mL/cm^3
same,VT (blocking),SV2A [4]; Centrum semiovale,3.4 mL/cm^3
same,VT (blocking),SV2A [4]; Cerebellum,6.6 mL/cm^3
same,VT (blocking),SV2A [4]; Cingulate cortex,10.4 mL/cm^3
same,VT (blocking),SV2A [4]; Frontal cortex,9.5 mL/cm^3
same,VT (blocking),SV2A [4]; Globus pallidus,6.9 mL/cm^3
same,VT (blocking),SV2A [4]; Hippocampus,5.9 mL/cm^3
same,VT (blocking),SV2A [4]; Insular cortex,10.3 mL/cm^3
same,reduction of tracer uptake in LEV displacement,"SV2A [4]; LEV 30 mg/kg i.v. at 120 min p.i., averaged from 5 brain regions, SUV at 4 h p.i. vs 180 min baseline",58 ± 8%
same,VT (blocking),SV2A [4]; Nucleus accumbens,10.5 mL/cm^3
same,VT (blocking),SV2A [4]; Occipital cortex,8.3 mL/cm^3
same,VT (blocking),SV2A [4]; Temporal cortex,8.6 mL/cm^3
same,BPND in the LEV blocking scan,"SV2A [4]; cingulate cortex and nucleus accumbens, 79% SV2A occupied by LEV",up to 2.11
same,reduction of tracer uptake in gray matter by pre-blocking,"SV2A [4]; preinjected LEV 30 mg/kg i.v., normalized terminal SUV",57 ± 10%
same,Kp,"[5]; brain (caudate), Caudate, LEV 30 mg/kg i.v., read-out: VT (blocking)",7.7
same,Kp,"[5]; brain (putamen), Putamen, LEV 30 mg/kg i.v., read-out: VT (blocking)",8.8
same,Kp,"[5]; brain (thalamus), Thalamus, LEV 30 mg/kg i.v., read-out: VT (blocking)",8.2
same,Kp,"[5]; brain, Lassen plot, read-out: VND",2.54
same,"regional BPND range, CS as reference region",SV2A [6],0.69-3.90
same,"regional BPND range, VND method",SV2A [6],2.9-15.1
same,"BPND, VND method",SV2A [6]; Amygdala,2.92 ± 0.25
same,"BPND, VT(CS) method",SV2A [6]; Amygdala,0.69 ± 0.23
same,"BPND, VND method",SV2A [6]; Anterior cingulate,15.13 ± 4.21
same,"BPND, VT(CS) method",SV2A [6]; Anterior cingulate,3.90 ± 1.38
same,"BPND, VND method",SV2A [6]; Brainstem,4.93 ± 0.15
same,"BPND, VT(CS) method",SV2A [6]; Brainstem,1.14 ± 0.24
same,"BPND, VND method",SV2A [6]; Caudate,8.76 ± 0.68
same,"BPND, VT(CS) method",SV2A [6]; Caudate,2.27 ± 0.68
same,"BPND, VND method",SV2A [6]; Cerebellum,9.47 ± 0.65
same,"BPND, VT(CS) method",SV2A [6]; Cerebellum,2.28 ± 0.53
same,"BPND, VND method",SV2A [6]; Cingulate cortex,14.97 ± 0.28
same,"BPND, VT(CS) method",SV2A [6]; Cingulate cortex,3.77 ± 1.28
same,"BPND, VND method",SV2A [6]; Frontal cortex,12.72 ± 0.76
same,"BPND, VT(CS) method",SV2A [6]; Frontal cortex,3.24 ± 1.07
same,"BPND, VND method",SV2A [6]; Globus pallidus,6.60 ± 0.33
same,"BPND, VT(CS) method",SV2A [6]; Globus pallidus,1.61 ± 0.42
same,BPND ratio [^18F]SDM-16/[^11C]UCB-J,SV2A [6]; Guo plot,1.41
same,BPND ratio [^18F]SDM-16/[^18F]SynVesT-1,SV2A [6]; Guo plot,0.99
same,"BPND, VND method",SV2A [6]; Hippocampus,6.55 ± 0.97
same,"BPND, VT(CS) method",SV2A [6]; Hippocampus,1.72 ± 0.44
same,"BPND, VND method",SV2A [6]; Insular cortex,13.77 ± 1.93
same,"BPND, VT(CS) method",SV2A [6]; Insular cortex,3.54 ± 1.31
same,"BPND, VND method",SV2A [6]; Nucleus accumbens,14.51 ± 0.23
same,"BPND, VT(CS) method",SV2A [6]; Nucleus accumbens,3.48 ± 1.35
same,"BPND, VND method",SV2A [6]; Occipital cortex,12.62 ± 1.09
same,"BPND, VT(CS) method",SV2A [6]; Occipital cortex,3.49 ± 0.90
same,"BPND, VND method",SV2A [6]; Putamen,11.50 ± 0.8
same,"BPND, VT(CS) method",SV2A [6]; Putamen,3.00 ± 1.00
same,"BPND, VND method",SV2A [6]; Temporal cortex,12.06 ± 0.54
same,"BPND, VT(CS) method",SV2A [6]; Temporal cortex,3.15 ± 0.52
same,"BPND, VND method",SV2A [6]; Thalamus,9.46 ± 0.19
same,"BPND, VT(CS) method",SV2A [6]; Thalamus,2.29 ± 0.72
same,BPND with CS VT lower than BPND with VND,SV2A [6]; average,67%
same,fraction present in plasma as free base,[7],30%
same,fraction unbound at 5 min,[8],0.69
